Patent US8946195B2, “Bicyclic methyl amine derivatives as sphingosine-1 phosphate receptors modulators” (Allergan, Inc., priority 2011, dated 2015)

What follows are compounds tested against T1, human S1P1 receptor (Homo sapiens, UniProt P21453) (assay: GTP γ35S binding assay for S1P1 activity). Details: membranes of cells stably expressing the S1P1 receptor, agonist potency.
T1 construct: expressed in transfected cells; membranes used
Format: biochemical
Experimental: Compounds were synthesized and tested for S1P1 activity using the GTP γ^35S binding assay. These compounds may be assessed for their ability to activate or block activation of the human S1P1 receptor in cells stably expressing the S1P1 receptor.
GTP γ35S binding was measured in the medium containing (mM) HEPES 25, pH 7.4, MgCl2 10, NaCl 100, dithitothreitol dithitothreitol 0.5, digitonin 0.003%, 0.2 nM GTP γ35S, and 5 μg membrane protein in a volume of 150 μl. Test compounds were included in the concentration range from 0.08 to 5,000 nM unless indicated otherwise. Membranes were incubated with 100 μM 5′-adenylylimidodiphosphate adenylylimmidodiphosphate for 30 min, and subsequently with 10 μM GDP for 10 min on ice. Drug solutions and membrane were mixed, and then reactions were initiated by adding GTP γ35S and continued for 30 min at 25° C. Reaction mixtures were filtered over Whatman GF/B filters under vacuum, and washed three times with 3 mL of ice-cold buffer (HEPES 25, pH7.4, MgCl2 10 and NaCl 100). Filters were dried and mixed with scintillant, and counted for 35S activity using a β-counter. Agonist-induced GTP γ35S binding was obtained by subtracting that in the absence of agonist. Binding data were analyzed using a non-linear regression method. In case of antagonist assay, the reaction mixture contained 10 nM […] in the presence of test antagonist at concentrations ranging from 0.08 to 5000 nM.

T1 sequence (P21453 whole entry): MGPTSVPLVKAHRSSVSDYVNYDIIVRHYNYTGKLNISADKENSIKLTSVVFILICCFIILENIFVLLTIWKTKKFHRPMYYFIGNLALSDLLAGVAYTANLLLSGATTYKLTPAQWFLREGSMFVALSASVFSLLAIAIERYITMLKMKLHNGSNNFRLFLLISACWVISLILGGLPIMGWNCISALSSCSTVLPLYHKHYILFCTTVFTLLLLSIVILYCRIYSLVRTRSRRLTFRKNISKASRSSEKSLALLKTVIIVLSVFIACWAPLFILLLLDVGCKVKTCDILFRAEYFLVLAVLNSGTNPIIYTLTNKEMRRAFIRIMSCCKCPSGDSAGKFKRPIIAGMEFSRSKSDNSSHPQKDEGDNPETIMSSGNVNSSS

In order of rising EC50:
1. CCCCCCc1ccc(-c2ccc(CNCCCP(=O)(O)O)c3c2CCC3)cc1 [Compound 1, [3-({[7-(4-hexylphenyl)-2,3-dihydro-1H-inden-4-yl]methyl}amino)propyl]phosphonic acid]  37.1 nM
2. CCCCCCc1ccc(-c2ccc(CNCCCP(=O)(O)O)c3ccoc23)cc1 [Compound 3, [3-({[7-(4-hexylphenyl)-1-benzofuran-4-yl]methyl}amino)propyl]phosphonic acid]  44.4 nM
3. CCCCCCc1ccc(-c2ccc(CNCCCP(=O)(O)O)c3occc23)cc1 [Compound 2, [3-({[4-(4-hexylphenyl)-1-benzofuran-7-yl]methyl}amino)propyl]phosphonic acid]  170 nM
